What was measured:
kochia [1] = experiment: Test C preemergence; format: in vivo, Bassia scoparia; conditions: preemergence, 0 to 100 scale (0 no effect, 100 complete control)
How it was run: (§1)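 Test material, in non-phytotoxic solvent with surfactant, was sprayed on the soil directly after seeding (preemergence) or on young plants of 2–10 cm with one to two leaves (postemergence). Greenhouse, 10 days; 0–100 visual control scale.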

wheat [2] = experiment: Test C postemergence; format: in vivo, Triticum aestivum; conditions: 10 days, 0 to 100 scale (0 no effect, 100 complete control)
How it was run: as §1

oat, wild [3] = experiment: Test C preemergence; format: in vivo, Avena fatua; conditions: preemergence, 0 to 100 scale (0 no effect, 100 complete control)
How it was run: as §1

corn [4] = experiment: Test C preemergence; format: in vivo, Zea mays; conditions: preemergence, 0 to 100 scale (0 no effect, 100 complete control)
How it was run: as §1

wheat [5] = experiment: Test C preemergence; format: in vivo, Triticum aestivum; conditions: preemergence, 0 to 100 scale (0 no effect, 100 complete control)
How it was run: as §1

pigweed, palmer [6] = experiment: Test C postemergence; format: in vivo, Amaranthus palmeri; conditions: 10 days, 0 to 100 scale (0 no effect, 100 complete control)
How it was run: as §1

pigweed, palmer [7] = experiment: Test C preemergence; format: in vivo, Amaranthus palmeri; conditions: preemergence, 0 to 100 scale (0 no effect, 100 complete control)
How it was run: as §1

sedge, umbrella = experiment: Test D flooded paddy test; format: in vivo, Cyperus difformis; conditions: 250 g ai/ha, applied to paddy water, visual rating after 13 to 14 days, scale 0 to 100 (0 no effect, 100 complete control)
How it was run: (§2)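 Plants grown to the 2-leaf stage; pots flooded to 3 cm above soil at treatment and held at that depth throughout. Test compounds applied directly to the paddy water. After 13 to 14 days in a greenhouse, response was rated visually versus controls on a 0 (no effect) to 100 (complete control) scale.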

rice = experiment: Test D flooded paddy test; format: in vivo, Oryza sativa; conditions: 250 g ai/ha, applied to paddy water, visual rating after 13 to 14 days, scale 0 to 100 (0 no effect, 100 complete control)
How it was run: as §2

blackgrass [8] = experiment: Test C postemergence; format: in vivo, Alopecurus myosuroides; conditions: 10 days, 0 to 100 scale (0 no effect, 100 complete control)
How it was run: as §1

horseweed = experiment: Test C postemergence; format: in vivo, Erigeron canadensis; conditions: 10 days, 0 to 100 scale (0 no effect, 100 complete control)
How it was run: as §1

galium = experiment: Test C postemergence; format: in vivo, Galium aparine; conditions: 10 days, 0 to 100 scale (0 no effect, 100 complete control)
How it was run: as §1

green foxtail [9] = experiment: Test C postemergence; format: in vivo, Setaria viridis; conditions: 10 days, 0 to 100 scale (0 no effect, 100 complete control)
How it was run: as §1

ducksalad = experiment: Test D flooded paddy test; format: in vivo, Heteranthera limosa; conditions: 250 g ai/ha, applied to paddy water, visual rating after 13 to 14 days, scale 0 to 100 (0 no effect, 100 complete control)
How it was run: as §2

ragweed [10] = experiment: Test C postemergence; format: in vivo, Ambrosia artemisiifolia; conditions: 10 days, 0 to 100 scale (0 no effect, 100 complete control)
How it was run: as §1

corn [11] = experiment: Test C postemergence; format: in vivo, Zea mays; conditions: 10 days, 0 to 100 scale (0 no effect, 100 complete control)
How it was run: as §1

soybean [12] = experiment: Test C postemergence; format: in vivo, Glycine max; conditions: 10 days, 0 to 100 scale (0 no effect, 100 complete control)
How it was run: as §1

blackgrass [13] = experiment: Test C preemergence; format: in vivo, Alopecurus myosuroides; conditions: preemergence, 0 to 100 scale (0 no effect, 100 complete control)
How it was run: as §1

barnyardgrass [14] = experiment: Test C preemergence; format: in vivo, Echinochloa crusgalli; conditions: preemergence, 0 to 100 scale (0 no effect, 100 complete control)
How it was run: as §1

soybean [15] = experiment: Test C preemergence; format: in vivo, Glycine max; conditions: preemergence, 0 to 100 scale (0 no effect, 100 complete control)
How it was run: as §1

green foxtail [16] = experiment: Test C preemergence; format: in vivo, Setaria viridis; conditions: preemergence, 0 to 100 scale (0 no effect, 100 complete control)
How it was run: as §1

ragweed [17] = experiment: Test C preemergence; format: in vivo, Ambrosia artemisiifolia; conditions: preemergence, 0 to 100 scale (0 no effect, 100 complete control)
How it was run: as §1

kochia [18] = experiment: Test C postemergence; format: in vivo, Bassia scoparia; conditions: 10 days, 0 to 100 scale (0 no effect, 100 complete control)
How it was run: as §1

ryegrass, Italian [19] = experiment: Test C postemergence; format: in vivo, Lolium multiflorum; conditions: 10 days, 0 to 100 scale (0 no effect, 100 complete control)
How it was run: as §1

barnyardgrass [20] = experiment: Test D flooded paddy test; format: in vivo, Echinochloa crus-galli; conditions: 250 g ai/ha, applied to paddy water, visual rating after 13 to 14 days, scale 0 to 100 (0 no effect, 100 complete control)
How it was run: as §2

oat, wild [21] = experiment: Test C postemergence; format: in vivo, Avena fatua; conditions: 10 days, 0 to 100 scale (0 no effect, 100 complete control)
How it was run: as §1

barnyardgrass [22] = experiment: Test C postemergence; format: in vivo, Echinochloa crusgalli; conditions: 10 days, 0 to 100 scale (0 no effect, 100 complete control)
How it was run: as §1

ryegrass, Italian [23] = experiment: Test C preemergence; format: in vivo, Lolium multiflorum; conditions: preemergence, 0 to 100 scale (0 no effect, 100 complete control)
How it was run: as §1

Cc1cccc2c1OC(C(F)(F)F)CN2C(=O)c1cccc(-n2cnc(C(C)C)n2)c1 (racemic) [Compound 301]
Kochia plant response rating (kochia [1]; 500 g ai/ha): 90 | Kochia plant response rating (kochia [1]; Test C, 125 g ai/ha): 80 | Plant response rating, Wheat (wheat [2]; 500 g ai/ha, postemergence): 50 | Plant response rating, Wheat (wheat [2]; Postemergence, 125 g ai/ha): 20 | Oat, Wild plant response rating (oat, wild [3]; 500 g ai/ha): 90 | Oat, Wild plant response rating (oat, wild [3]; Test C, 125 g ai/ha): 70 | Corn plant response rating (corn [4]; 500 g ai/ha): 0 | Corn plant response rating (corn [4]; Test C, 125 g ai/ha): 0 | Wheat plant response rating (wheat [5]; 500 g ai/ha): 90 | Wheat plant response rating (wheat [5]; Test C, 125 g ai/ha): 40 | Plant response rating, Pigweed, Palmer (pigweed, palmer [6]; 500 g ai/ha, postemergence): 60 | Plant response rating, Pigweed, Palmer (pigweed, palmer [6]; Postemergence, 125 g ai/ha): 10 | Pigweed, Palmer plant response rating (pigweed, palmer [7]; 500 g ai/ha): 100 | Pigweed, Palmer plant response rating (pigweed, palmer [7]; Test C, 125 g ai/ha): 90 | Plant response rating, Sedge, Umbrella (Flood) (sedge, umbrella): 85 | Plant response rating, Rice (Flood) (rice): 15 | Plant response rating, Blackgrass (blackgrass [8]; 500 g ai/ha, postemergence): 100 | Plant response rating, Blackgrass (blackgrass [8]; Postemergence, 125 g ai/ha): 90 | Plant response rating, Horseweed (horseweed; 500 g ai/ha, postemergence): 0 | Plant response rating, Horseweed (horseweed; Postemergence, 125 g ai/ha): 20 | Plant response rating, Galium (galium; 500 g ai/ha, postemergence): 100 | Plant response rating, Galium (galium; Postemergence, 125 g ai/ha): 100 | Plant response rating, Foxtail, Green (green foxtail [9]; 500 g ai/ha, postemergence): 70 | Plant response rating, Foxtail, Green (green foxtail [9]; Postemergence, 125 g ai/ha): 10 | Plant response rating, Ducksalad (Flood) (ducksalad): 55 | Plant response rating, Ragweed (ragweed [10]; 500 g ai/ha, postemergence): 60 | Plant response rating, Ragweed (ragweed [10]; Postemergence, 125 g ai/ha): 30 | Plant response rating, Corn (corn [11]; 500 g ai/ha, postemergence): 80 | Plant response rating, Corn (corn [11]; Postemergence, 125 g ai/ha): 10 | Plant response rating, Soybean (soybean [12]; 500 g ai/ha, postemergence): 100 | Plant response rating, Soybean (soybean [12]; Postemergence, 125 g ai/ha): 100 | Blackgrass plant response rating (blackgrass [13]; 500 g ai/ha): 100 | Blackgrass plant response rating (blackgrass [13]; Test C, 125 g ai/ha): 90 | Barnyardgrass plant response rating (barnyardgrass [14]; 500 g ai/ha): 90 | Barnyardgrass plant response rating (barnyardgrass [14]; Test C, 125 g ai/ha): 50 | Soybean plant response rating (soybean [15]; 500 g ai/ha): 100 | Soybean plant response rating (soybean [15]; Test C, 125 g ai/ha): 10 | Foxtail, Green plant response rating (green foxtail [16]; 500 g ai/ha): 100 | Foxtail, Green plant response rating (green foxtail [16]; Test C, 125 g ai/ha): 100 | Ragweed plant response rating (ragweed [17]; 500 g ai/ha): 50 | Ragweed plant response rating (ragweed [17]; Test C, 125 g ai/ha): 0 | Plant response rating, Kochia (kochia [18]; 500 g ai/ha, postemergence): 80 | Plant response rating, Kochia (kochia [18]; Postemergence, 125 g ai/ha): 50 | Plant response rating, Ryegrass, Italian (ryegrass, Italian [19]; 500 g ai/ha, postemergence): 80 | Plant response rating, Ryegrass, Italian (ryegrass, Italian [19]; Postemergence, 125 g ai/ha): 70 | Plant response rating, Barnyardgrass (Flood) (barnyardgrass [20]): 20 | Plant response rating, Oat, Wild (oat, wild [21]; 500 g ai/ha, postemergence): 50 | Plant response rating, Oat, Wild (oat, wild [21]; Postemergence, 125 g ai/ha): 20 | Plant response rating, Barnyardgrass (barnyardgrass [22]; 500 g ai/ha, postemergence): 40 | Plant response rating, Barnyardgrass (barnyardgrass [22]; Postemergence, 125 g ai/ha): 10 | Ryegrass, Italian plant response rating (ryegrass, Italian [23]; 500 g ai/ha): 100 | Ryegrass, Italian plant response rating (ryegrass, Italian [23]; Test C, 125 g ai/ha): 100
